The text below walks through data of paper PMC2967473, “PP2A1 Binding, Cell Transducing and Apoptotic Properties of Vpr77–92: A New Functional Domain of HIV-1 Vpr Proteins” (PLoS ONE, 2010).

Residues, ends and D or L forms follow the SMILES beside them. *: point of attachment. Biotin = O=C1N[C@H]2[C@H](CS[C@H]2CCCCC(=O)*)N1

One data set deals with HeLa cells. As to the kind of experiment: Cell penetration and localization of biotinylated peptides. It counts as cell-based, human. The conditions noted are these: 150 µM biotinylated peptide, 2 h, 37°C, streptavidin-peroxydase/DAB staining, microscopy; for Cell penetration: fixation. The protocol:
A total of 4×10^4 exponentially proliferating HeLa cells growing in a sub confluent monolayer were seeded per well on a Lab-Tek and incubated at 37°C, 5% CO2. Biotinylated peptides were added 48 h later to the cells at different concentrations for different periods of time. Cells were washed twice in PBS, and fixed with absolute ethanol for 10 min at –20°C before addition of 100 µM of streptavidin HRP conjugate After 30 min incubation at 37°C, cells were rinsed twice in PBS and incubated with DAB for around 10 min. Cells were washed in distilled water and mounted for microscopic examination.

A further data set deals with PP2A1 holoenzyme. As to the kind of experiment: Affinity chromatography of PP2A1 on Vpr-T-agarose column, phosphorylase a phosphatase assay. The conditions noted are these: 16 µg PP2A1 on 1 mL column, buffer C pH 7.4, linear gradient to 1 M NaCl, phosphorylase a as substrate. It counts as binding, pig. How it is done:
Figure 1 Analysis of HIV-1 Vpr and PP2A1 interaction. (A) 16 µg of PP2A1 holoenzyme purified from pig brain was loaded on a 1 mL HIV-1 strain 89.6-Vpr-T-agarose column equilibrated in buffer C (25 mM TrisHCl pH 7.4, 50 mM NaCl, 0.1 mM EDTA). The column was washed with 10 mL of buffer C and then developed with a 18 mL linear gradient of buffer C to buffer C plus 1 M NaCl. Phosphatase activity of collected fractions was assayed with phosphorylase a as substrat (1U = 1 pm of phosphate liberated by 10 µL of fraction/min). A major peak of phosphatase activity was detected, eluting at 0.3 M NaCl. (B) ECL revelation of PP2A binding assay on cellulose-bound Vpr peptides. 43 overlapping dodecapeptides with a two-amino acid shift scanning the entire 89.6-Vpr sequence (accession number: AAA81039) were synthesized on a cellulose membrane. The membrane was incubated with PP2A1 holoenzyme (upper panel) or PP2A-A subunit (lower panel) and subsequently with anti-PP2A antibodies followed by peroxydase-labelled anti-guinea pig antibodies. (C) Sequence of HIV-1 Vpr protein: sequence of the two PP2A-A binding sites are indicated in bold. These sequences correspond to overlapping sequences of positive dodecapeptides 29 to 32 (PP2A-A subunit incubation) or 39 to 41 (PP2A1 incubation). (D) Co-precipitation of DPT-Vpr peptides with PP2A1 in HeLa cell extracts. […]

`CC[C@H](C)[C@H](NC(=O)CNC(=O)[C@@H](NC(=O)[C@H](CCCNC(=N)N)NC(=O)[C@H](CO)NC(=O)[C@H](Cc1c[nH]cn1)NC(=O)[C@H](CCCNC(=N)N)NC(=O)CCCC[C@@H]1SC[C@@H]2NC(=O)N[C@@H]21)[C@@H](C)CC)C(=O)N[C@H](C(=O)N[C@@H](CCC(N)=O)C(=O)N[C@@H](CCC(N)=O)C(=O)N[C@@H](CCCNC(=N)N)C(=O)N[C@@H](CCCNC(=N)N)C(=O)N[C@H](C(=O)N[C@@H](CCCNC(=N)N)C(=O)N[C@@H](CC(N)=O)C(=O)NCC(=O)O)[C@@H](C)O)[C@@H](C)CC` [DPT-Vpr1]: in the data set on HeLa cells, the Cell penetration entry is recorded as “penetrate into HeLa cells” and the Intra-cellular localization result is “homogeneous cytoplasm labeling”.
In the case of `CC[C@H](C)[C@H](NC(=O)CNC(=O)[C@@H](NC(=O)[C@H](C)NC(=O)[C@H](CO)NC(=O)[C@H](Cc1c[nH]cn1)NC(=O)[C@H](C)NC(=O)CCCC[C@@H]1SC[C@@H]2NC(=O)N[C@@H]21)[C@@H](C)CC)C(=O)N[C@H](C(=O)N[C@@H](CCC(N)=O)C(=O)N[C@@H](CCC(N)=O)C(=O)N[C@@H](CCCNC(=N)N)C(=O)N[C@@H](CCCNC(=N)N)C(=O)N[C@@H](C)C(=O)N[C@@H](CCCNC(=N)N)C(=O)N[C@@H](CC(N)=O)C(=O)NCC(=O)O)[C@@H](C)CC` [DPT-Vpr3] (Biotin-AHSAIGIIQQRRARNG-OH), in the data set with HeLa cells, the Cell penetration entry is given as “penetrate into HeLa cells” and the Intra-cellular localization entry was “homogeneous cytoplasm labeling”.
As to `N=C(N)NCCC[C@H](NC(=O)[C@H](CCCNC(=N)N)NC(=O)[C@H](CCC(N)=O)NC(=O)[C@H](CCCNC(=N)N)NC(=O)[C@H](CCCNC(=N)N)NC(=O)[C@H](CCCCN)NC(=O)[C@H](CCCCN)NC(=O)[C@H](CCCNC(=N)N)NC(=O)CNC(=O)[C@H](Cc1ccc(O)cc1)NC(=O)CCCC[C@@H]1SC[C@@H]2NC(=O)N[C@@H]21)C(=O)O` [Tat, reference compound] (Biotin-YGRKKRRQRR-OH), in the data set with HeLa cells, the Cell penetration entry is “penetrate into HeLa cells” and the Intra-cellular localization result is “homogeneous cytoplasm labeling”.

B1: Vpr-T: full length HIV-1 89.6-Vpr in a 6-his C-term tagged form, expressed in bacteria (protein)
chain: MEQAPEDQGPQREPYNDWTLELLEELKNEAVRHFPRIWLHSLGQHIYETYGDTWTGVEALIRILQQLLFIHFRIGCRHSRIGIIQQRRTRNGASKS
modifications: left off: His6, C-terminal, kept
notes: full length HIV-1 89.6-Vpr in a 6-his C-term tagged form, expressed in bacteria
With B1, the “NaCl concentration at which bound PP2A1 phosphatase activity elutes from the Vpr-T-agarose column” value in the data set with PP2A1 holoenzyme is listed as 0.3 M NaCl.
